Among the test systems are A498 renal; DU-145 prostate; HL-60(TB) leukemia; MALME-3M melanoma; NCI-H460 lung; OVCAR-5 ovarian; SF-539 CNS; SR leukemia; T-47D breast; UACC-257 melanoma.
Common to all, as to experiment: DTP human tumour cell line panel, 48 h

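1) Cells in 96-well plates. 2) Compound, 48 h, 5 concentrations. 3) Linear interpolation between surrounding doses. 4) Unreached endpoint = highest concentration. At the GI50, growth is halved. TGI denotes the concentration required for complete inhibition of growth.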

Broadly, the GI50 is the concentration giving 50% growth inhibition. As a reminder, the TGI is the concentration at which net growth stops. Read a low TGI as more potent growth arrest.

`CCOc1ccc(S(=O)(=O)/N=C2\C=C(SCC(=O)O)C(=O)c3ccccc32)cc1`: the GI50 is 21.6 µM in the assay on A498 renal; 2.04 µM in the assay on DU-145 prostate; 2350 nM in the assay on HL-60(TB) leukemia; 2.13 µM in the assay with MALME-3M melanoma; 12.4 µM in the assay with NCI-H460 lung; 5.5 µM with OVCAR-5 ovarian. Also, the GI50 with SF-539 CNS was 2.49 µM; with SR leukemia, 538 nM; with T-47D breast, 2720 nM; in the assay on UACC-257 melanoma it was 16.1 µM. Moreover, the total growth inhibition concentration (TGI) came out at 37 µM in the assay with A498 renal; 5.86 µM with DU-145 prostate; 6.99 µM in the assay on HL-60(TB) leukemia; 3.69 µM with MALME-3M melanoma; 28.2 µM with NCI-H460 lung; 25.1 µM in the assay on OVCAR-5 ovarian. Also, the TGI in the assay with SF-539 CNS amounted to 5.39 µM; in the assay with SR leukemia, 5.26 µM; in the assay with T-47D breast, 7.18 µM; in the assay with UACC-257 melanoma it was 39.3 µM.

Regarding `C#Cc1cnc(=O)n(C2CC(O)C(CO)O2)c1` (stereo not given), the GI50 with A498 renal was greater than 100 µM; with DU-145 prostate, greater than 100 µM; in the assay with HL-60(TB) leukemia it was greater than 100000 nM; in the assay with MALME-3M melanoma, greater than 100 µM; in the assay on NCI-H460 lung, greater than 78.5 µM; in the assay with OVCAR-5 ovarian it was greater than 100 µM. In addition, the GI50 was greater than 100 µM with SF-539 CNS, 91500 nM with SR leukemia, greater than 100000 nM in the assay on T-47D breast and greater than 54.5 µM in the assay with UACC-257 melanoma. For the same compound, the TGI with A498 renal, in the assay on DU-145 prostate, in the assay on HL-60(TB) leukemia, in the assay on MALME-3M melanoma, in the assay with NCI-H460 lung and in the assay with OVCAR-5 ovarian was greater than 100 µM in each case. Moreover, the TGI is greater than 100 µM in the assay with SF-539 CNS, greater than 100 µM in the assay with SR leukemia, greater than 100 µM with T-47D breast and 98.1 µM in the assay on UACC-257 melanoma.

On to `COc1cc(/C=C\[N+](=O)[O-])ccc1O`, for which the GI50 in the assay with A498 renal was 12.3 µM; in the assay with DU-145 prostate, 2.41 µM; in the assay on HL-60(TB) leukemia, 2390 nM; in the assay on MALME-3M melanoma, 1.91 µM; in the assay with NCI-H460 lung, 3.51 µM; in the assay with OVCAR-5 ovarian, 3.94 µM. In addition, the GI50 is 2.03 µM in the assay on SF-539 CNS, 987 nM in the assay on SR leukemia, 2330 nM with T-47D breast and 2.42 µM with UACC-257 melanoma. The TGI turned out to be 24.8 µM in the assay on A498 renal; 5.93 µM in the assay on DU-145 prostate; 6.31 µM in the assay on HL-60(TB) leukemia; 4.91 µM with MALME-3M melanoma; 13.7 µM in the assay on NCI-H460 lung; 14.5 µM in the assay with OVCAR-5 ovarian. Besides, the TGI in the assay on SF-539 CNS is 5.18 µM; in the assay with SR leukemia it was 38.5 µM; in the assay with T-47D breast, 9.95 µM; in the assay with UACC-257 melanoma, 6.77 µM.

Regarding `CC(C)(C)c1cc(O)c(O)c(C(C)(C)C)c1`, the GI50 in the assay on A498 renal was 6.19 µM; with DU-145 prostate, 4.6 µM; with HL-60(TB) leukemia it was 2690 nM; with MALME-3M melanoma, 3.13 µM; in the assay with NCI-H460 lung it was 3 µM; with OVCAR-5 ovarian, 11.1 µM. Further, the GI50 with SF-539 CNS is 3.47 µM; with SR leukemia it was 2380 nM; with T-47D breast it was 2360 nM; with UACC-257 melanoma, 2.42 µM. Further, the concentration for total growth inhibition (TGI) in the assay on A498 renal turned out to be 19.8 µM; with DU-145 prostate it was 15.8 µM; in the assay on HL-60(TB) leukemia, 6.8 µM; in the assay on MALME-3M melanoma, 9.71 µM; in the assay with NCI-H460 lung it was 10 µM; with OVCAR-5 ovarian it was 23.3 µM. The TGI with SF-539 CNS was 11 µM; with SR leukemia, 6.64 µM; with T-47D breast it was 5.02 µM; in the assay with UACC-257 melanoma, 7.4 µM.

In the case of `CC(CO)(CO)N=Cc1cc(I)cc(I)c1O`, the concentration for total growth inhibition (TGI) in the assay with A498 renal worked out at 65.4 µM; with DU-145 prostate, 29.8 µM; in the assay on HL-60(TB) leukemia, 29.6 µM; in the assay with MALME-3M melanoma, 28.5 µM; in the assay on NCI-H460 lung, 55 µM; in the assay with OVCAR-5 ovarian it was 53.7 µM. The TGI with SF-539 CNS is 31.3 µM; in the assay with SR leukemia, 54.1 µM; with T-47D breast, greater than 100 µM; in the assay with UACC-257 melanoma it was 45.1 µM.

In the case of `COc1cc(-n2cc(-c3ccc(Cl)c(Cl)c3)nc2SCc2ccccc2)cc(OC)c1OC`, the GI50 is greater than 100 µM with A498 renal; greater than 100 µM in the assay on DU-145 prostate; greater than 100000 nM in the assay on HL-60(TB) leukemia; greater than 100 µM in the assay with MALME-3M melanoma; greater than 100 µM in the assay on NCI-H460 lung; greater than 100 µM in the assay on OVCAR-5 ovarian. In addition, the GI50 is greater than 100 µM in the assay on SF-539 CNS, greater than 100000 nM in the assay with SR leukemia, greater than 100000 nM in the assay on T-47D breast and greater than 100 µM in the assay on UACC-257 melanoma. Also, the TGI in the assay on A498 renal, in the assay with DU-145 prostate, in the assay with HL-60(TB) leukemia, with MALME-3M melanoma, in the assay on NCI-H460 lung and in the assay on OVCAR-5 ovarian was greater than 100 µM throughout. For the same compound, the TGI in the assay with SF-539 CNS, with SR leukemia, in the assay on T-47D breast and in the assay on UACC-257 melanoma was greater than 100 µM in each case.

In the case of `COc1ccc(/C=C/C=C(/C#N)C(N)=S)cc1`, the GI50 in the assay on A498 renal is 25.1 µM; in the assay on DU-145 prostate, 32.7 µM; in the assay on HL-60(TB) leukemia, 26000 nM; in the assay with MALME-3M melanoma, 26.9 µM; in the assay with NCI-H460 lung it was 23.7 µM; in the assay on OVCAR-5 ovarian, 34.3 µM. In addition, the GI50 is 34.8 µM in the assay on SF-539 CNS, 19400 nM with SR leukemia, 18800 nM with T-47D breast and 20.4 µM with UACC-257 melanoma. In addition, the TGI is 56.5 µM in the assay on A498 renal; greater than 100 µM with DU-145 prostate; greater than 100 µM with HL-60(TB) leukemia; 99.4 µM in the assay with MALME-3M melanoma; 65.9 µM in the assay on NCI-H460 lung; 95.8 µM with OVCAR-5 ovarian. Besides, the TGI is greater than 100 µM in the assay on SF-539 CNS, greater than 100 µM with SR leukemia, 76.9 µM with T-47D breast and 41.4 µM in the assay with UACC-257 melanoma.

Values taken from PubChem BioAssay (NCI).
